Reference: patent publication US8183239B2, “Substituted piperazines and piperidines as modulators of the neuropeptide Y2 receptor” (Janssen Pharmaceutica NV, priority 2005, dated 2012)

Target: T1, Y2 receptors (Homo sapiens, UniProt P49146)
T1 construct: endogenous in cells; host or cells: KAN-Ts cells (membranes)
T1 sequence (P49146 1-381): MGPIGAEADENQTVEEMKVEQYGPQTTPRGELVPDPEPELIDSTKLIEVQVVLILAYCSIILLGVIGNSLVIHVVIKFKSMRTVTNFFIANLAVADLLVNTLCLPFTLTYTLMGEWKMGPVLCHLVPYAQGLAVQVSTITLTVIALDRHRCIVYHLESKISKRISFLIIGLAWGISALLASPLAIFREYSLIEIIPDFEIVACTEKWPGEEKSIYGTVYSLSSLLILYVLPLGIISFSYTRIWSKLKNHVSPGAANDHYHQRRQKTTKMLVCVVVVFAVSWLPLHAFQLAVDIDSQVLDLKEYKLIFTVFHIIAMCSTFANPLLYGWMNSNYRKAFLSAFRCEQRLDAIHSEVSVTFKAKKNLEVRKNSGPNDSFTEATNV
Test: Radioligand binding assay ([125I]PYY, KAN-Ts cell membranes)
Conditions: Table 1, [125I]PYY 80 pM, average of results, read-out: IC50
Procedure: Radioligand Binding Assay
KAN-Ts endogenously expressing Y2 receptors were used for the radioligand binding assay. Cells were grown to confluence on 150 cm^2 tissue culture plates, washed with phosphate-buffered saline (PBS), and scraped into 50 mL tubes. After centrifugation, the supernatant was aspirated, and the pellets frozen and stored at −80° C. Thawed pellets were homogenized with a polytron tissue grinder for 15 sec in 20 mM Tris-HCl, 5 mM EDTA. The homogenate was centrifuged at 800×g for 5 min and the collected supernatant was recentrifuged at 25000×g for 25 min. The resulting pellet was resuspended in binding buffer (20 mM HEPES, 120 mM NaCl, 0.22 mM KH2PO4, 1.3 mM CaCl2, 0.8 mM MgSO4). Membranes were incubated with [^125I]PYY (80 pM) in the presence or absence of test compound for 1 h at rt. The reaction was stopped by filtration through GF/C filter plates pre-soaked in 0.3% polyethylenimine and subsequently washed with Tris 50 mM, 5 mM EDTA buffer. Plates were dried for 1 h in a 55° C. oven, scintillation fluid was added and the radioactivity was counted in a Packard TopCount. Specific binding to the NPY receptor subtypes was determined by radioactivity that was bound in the presence of […]. Each binding experiment was repeated three to eight times, each in duplicate. IC50 values (i.e. concentration of unlabelled peptide or antagonist required to compete for 50% of specific binding to the radioligand) were calculated using the GraphPad Prism software (GraphPad Software Inc., San Diego Calif.) with a fit to a sigmoidal dose response curve. Data for compounds tested are presented in Tables 1 and 2 as an average of results obtained.

| SMILES | IC50 [nM] |
| --- | --- |
| CCCCC(CC)C(=O)Nc1ccc(N2CCN(C(C(=O)OC)c3ccccc3)CC2)cc1 (stereo not shown) [Example 82, {4-[4-(2-Ethyl-hexanoylamino)-phenyl]-piperazin-1-yl}-phenyl-acetic acid methyl ester] | 400 |
| CCCCCC(=O)Nc1ccc(N2CCN(C(C(=O)OC)c3ccccc3)CC2)cc1 (stereo not shown) [Example 83, [4-(4-Hexanoylamino-phenyl)-piperazin-1-yl]-phenyl-acetic acid methyl ester] | 3600 |
| COC(=O)C(c1ccccc1)N1CCN(c2ccc(NC(=O)CCc3ccccc3)cc2)CC1 (stereo not shown) [Example 84, Phenyl-{4-[4-(3-phenyl-propionylamino)-phenyl]-piperazin-1-yl}-acetic acid methyl ester] | 3350 |
| CCCC(C)C(=O)Nc1ccc(N2CCN(C(C(=O)OC)c3ccccc3)CC2)cc1 (stereo not shown) [Example 85, {4-[4-(2-Methyl-pentanoylamino)-phenyl]-piperazin-1-yl}-phenyl-acetic acid methyl ester] | 1300 |
| CCCCC(=O)Nc1ccc(N2CCN(C(C(=O)OC)c3ccccc3)CC2)cc1 (stereo not shown) [Example 86, [4-(4-Pentanoylamino-phenyl)-piperazin-1-yl]-phenyl-acetic acid methyl ester] | 4800 |
| COC(=O)C(c1ccccc1)N1CCN(c2ccc(NC(=O)CCC(C)C)cc2)CC1 (stereo not shown) [Example 87, {4-[4-(4-Methyl-pentanoylamino)-phenyl]-piperazin-1-yl}-phenyl-acetic acid methyl ester] | 1700 |
| CCNC(=O)C(c1ccccc1)N1CCN(c2ccc(NC(=O)CCC(C)C)cc2F)CC1 (stereo not shown) [Example 88, 4-Methyl-pentanoic acid {4-[4-(ethylcarbamoyl-phenyl-methyl)-piperazin-1-yl]-3-fluoro-phenyl}-amide] | 1000 |
| CCCCC(CC)C(=O)Nc1ccc(N2CCN(C(C(=O)NCC)c3ccccc3)CC2)c(F)c1 (stereo not shown) [Example 89, 2-Ethyl-hexanoic acid {4-[4-(ethylcarbamoyl-phenyl-methyl)-piperazin-1-yl]-3-fluoro-phenyl}-amide] | 1040 |
| CCNC(=O)C(c1ccccc1)N1CCN(c2ccc(NC(=O)CCN(CC)CC)cc2F)CC1 (stereo not shown) [Example 91, 3-Diethylamino-N-{4-[4-(ethylcarbamoyl-phenyl-methyl)-piperazin-1-yl]-3-fluoro-phenyl}-propionamide] | 10000 |
| CCNC(=O)C(c1ccccc1)N1CCN(c2ccc(NC(=O)C(CC3CCCN3)C(F)(F)F)cc2F)CC1 (stereo not shown) [Example 93, N-{4-[4-(Ethylcarbamoyl-phenyl-methyl)-piperazin-1-yl]-3-fluoro-phenyl}-3,3,3-trifluoro-2-pyrrolidin-2-ylmethyl-propionamide] | 5000 |
| CCNC(=O)C(c1ccccc1)N1CCN(c2ccc(NC(=O)C(CC3CCCCN3)C(F)(F)F)cc2F)CC1 (stereo not shown) [Example 94, N-{4-[4-(Ethylcarbamoyl-phenyl-methyl)-piperazin-1-yl]-3-fluoro-phenyl}-3,3,3-trifluoro-2-piperidin-2-ylmethyl-propionamide] | 10000 |
| CCNC(=O)C(c1ccccc1)N1CCN(c2ccc(NC(=O)CN3CCN(C(C)C)CC3)cc2F)CC1 (stereo not shown) [Example 95, N-Ethyl-2-(4-{2-fluoro-4-[2-(4-isopropyl-piperazin-1-yl)-acetylamino]-phenyl}-piperazin-1-yl)-2-phenyl-acetamide] | 10000 |
| CCNC(=O)C(c1ccccc1)N1CCN(c2ccc(NC(=O)C3CCN3C3CCCCC3)cc2F)CC1 (stereo not shown) [Example 96, 1-Cyclohexyl-azetidine-2-carboxylic acid {4-[4-(ethylcarbamoyl-phenyl-methyl)-piperazin-1-yl]-3-fluoro-phenyl}-amide] | 9000 |
| COC(=O)C(c1ccccc1)N1CCN(c2ccc(NC(=O)c3cccnc3)cc2)CC1 (stereo not shown) [Example 98, Phenyl-(4-{4-[(pyridine-3-carbonyl)-amino]-phenyl}-piperazin-1-yl)-acetic acid methyl ester] | 12000 |

Now from value to compound:

| IC50 [nM] | SMILES |
| --- | --- |
| 1300 | COC(=O)C(c1ccccc1)N1CCN(c2ccc(NC(=O)c3ccccc3C)cc2F)CC1 (stereo not shown) [Example 62, {4-[2-Fluoro-4-(2-methyl-benzoylamino)-phenyl]-piperazin-1-yl}-phenyl-acetic acid methyl ester] |
| 600 | CCc1ccccc1C(=O)Nc1ccc(N2CCN(C(C(=O)OC)c3ccccc3)CC2)c(F)c1 (stereo not shown) [Example 63, {4-[4-(2-Ethyl-benzoylamino)-2-fluoro-phenyl]-piperazin-1-yl}-phenyl-acetic acid methyl ester] |
| 1000 | COC(=O)C(c1ccccc1)N1CCN(c2ccc(NC(=O)c3ccccc3C(C)C)cc2F)CC1 (stereo not shown) [Example 64, {4-[2-Fluoro-4-(2-isopropyl-benzoylamino)-phenyl]-piperazin-1-yl}-phenyl-acetic acid methyl ester] |
| 1300 | COC(=O)C(c1ccccc1)N1CCN(c2ccc(NC(=O)c3ccccc3OC)cc2F)CC1 (stereo not shown) [Example 65, {4-[2-Fluoro-4-(2-methoxy-benzoylamino)-phenyl]-piperazin-1-yl}-phenyl-acetic acid methyl ester] |
| 1400 | CNc1ccccc1C(=O)Nc1ccc(N2CCN(C(C(=O)OC)c3ccccc3)CC2)c(F)c1 (stereo not shown) [Example 68, {4-[2-Fluoro-4-(2-methylamino-benzoylamino)-phenyl]-piperazin-1-yl}-phenyl-acetic acid methyl ester] |
| 25000 | CCc1cccc(C(=O)Nc2ccc(N3CCN(C(C(=O)OC)c4ccccc4)CC3)cc2)c1 (stereo not shown) [Example 69, {4-[4-(3-Ethyl-benzoylamino)-phenyl]-piperazin-1-yl}-phenyl-acetic acid methyl ester] |
| 6000 | COC(=O)C(c1ccccc1)N1CCN(c2ccc(NC(=O)c3cccc(C)c3)cc2)CC1 (stereo not shown) [Example 72, {4-[4-(3-Methyl-benzoylamino)-phenyl]-piperazin-1-yl}-phenyl-acetic acid methyl ester] |
| 230 | COC(=O)C(c1ccccc1)N1CCN(c2ccc(NC(=O)CCC(C)C)cc2F)CC1 (stereo not shown) [Example 78, {4-[2-Fluoro-4-(4-methyl-pentanoylamino)-phenyl]-piperazin-1-yl}-phenyl-acetic acid methyl ester] |
| 100 | CCCCC(CC)C(=O)Nc1ccc(N2CCN(C(C(=O)OC)c3ccccc3)CC2)c(F)c1 (stereo not shown) [Example 79, {4-[4-(2-Ethyl-hexanoylamino)-2-fluoro-phenyl]-piperazin-1-yl}-phenyl-acetic acid methyl ester] |
| 9700 | CCNC(=O)C(c1ccccc1)N1CCN(c2ccc(NC(=O)CCc3ccccc3)cc2F)CC1 (stereo not shown) [Example 90, N-{4-[4-(Ethylcarbamoyl-phenyl-methyl)-piperazin-1-yl]-3-fluoro-phenyl}-3-phenyl-propionamide] |
| 5100 | CCNC(=O)C(c1ccccc1)N1CCN(c2ccc(NC(=O)Cc3ccncc3)cc2F)CC1 (stereo not shown) [Example 92, N-Ethyl-2-{4-[2-fluoro-4-(2-pyridin-4-yl-acetylamino)-phenyl]-piperazin-1-yl}-2-phenyl-acetamide] |
| 1100 | CCNC(=O)C(c1ccccc1)N1CCN(c2ccc(NC(=O)/C=C\c3ccccc3OC)cc2F)CC1 (stereo not shown) [Example 97, (Z)—N-{4-[4-(Ethylcarbamoyl-phenyl-methyl)-piperazin-1-yl]-3-fluoro-phenyl}-3-(2-methoxy-phenyl)-acryl amide] |
| 250 | COC(=O)C(c1ccccc1)N1CCN(c2ccc(NC(=O)c3ccccc3I)cc2F)CC1 (stereo not shown) [Example 99, {4-[2-Fluoro-4-(2-iodo-benzoylamino)-phenyl]-piperazin-1-yl}-phenyl-acetic acid methyl ester] |
| 890 | CCNC(=O)C(c1ccccc1)N1CCN(c2ccc(NC(=O)c3cccnc3Br)cc2F)CC1 (stereo not shown) [Example 100, 2-Bromo-N-{4-[4-(ethylcarbamoyl-phenyl-methyl)-piperazin-1-yl]-3-fluoro-phenyl}-nicotinamide] |
| 20000 | COC(=O)C(c1ccccc1)N1CCN(c2ccc(NC(=O)c3ccco3)cc2)CC1 (stereo not shown) [Example 101, (4-{4-[(Furan-2-carbonyl)-amino]-phenyl}-piperazin-1-yl)-phenyl-acetic acid methyl ester] |
| 20000 | COC(=O)C(c1ccccc1)N1CCN(c2ccc(NC(=O)c3ccoc3)cc2)CC1 (stereo not shown) [Example 102, (4-{4-[(Furan-3-carbonyl)-amino]-phenyl}-piperazin-1-yl)-phenyl-acetic acid methyl ester] |
| 2500 | COC(=O)C(c1ccccc1)N1CCN(c2ccc(NC(=O)c3ccsc3)cc2)CC1 (stereo not shown) [Example 103, Phenyl-(4-{4-[(thiophene-3-carbonyl)-amino]-phenyl}-piperazin-1-yl)-acetic acid methyl ester] |
